Measured values from publication PMC5499580 (Nucleic Acids Research, 2017).

Legend:
ribosome [1] = test: Toe-printing analysis; type: biochemical
[2] = test system: E. coli S30 extract translation system; type: biochemical; conditions: 5 μM, luciferase mRNA, 37°C, 30 min
VatB acetyltransferase = conditions: cited from earlier work
ribosome [3] = conditions: PURExpress, osmC mRNA; 50 μM; worded as known, no reference given; cited from earlier work
23S rRNA mutation A2503G = conditions: cited from earlier work
ribosome [4] = conditions: compared with MADU on osmC mRNA; cited from earlier work
[5] = test system: peptidyl transferase reaction; conditions: polyU-guided in vitro translation system; cited from earlier work

## CC1=C\[C@@H](O)C[C@@H](O)Cc2nc(co2)C(=O)N[C@H](C)C(=O)O[C@H](C(C)C)[C@H](C)/C=C/C(=O)NC\C=C\1 [MADU, madumycin II]
Ribosome [1]; PURExpress cell-free system, osmC mRNA, 0.5, 5 and 50 μM MADU
  Ribosome stalling on osmC mRNA: dose-dependent ribosome stalling at the start codon
Ribosome [1]; PURExpress, 5 µM MADU, mutated osmC mRNAs
  Progression to second codon, Gly vs Ile second codon: noticeably more ribosomes progressing to the second codon in the case of glycine as compared with the isoleucine
[2]
  Reduction of the efficiency of protein synthesis: > 100 fold
VatB acetyltransferase
  Effect of VatB acetylation of C12-hydroxyl on activity: renders the drug inactive

## C=C(NC(=O)C(=C)NC(=O)c1csc(C2=N[C@@H]3c4csc(n4)[C@H]4NC(=O)c5csc(n5)[C@H]([C@](C)(O)[C@@H](C)O)NC(=O)[C@H]5CSC(=N5)/C(=C/C)NC(=O)[C@H]([C@@H](C)O)NC(=O)c5csc(n5)[C@]3(CC2)NC(=O)[C@H](C)NC(=O)C(=C)NC(=O)[C@H](C)NC(=O)[C@H]([C@@H](C)CC)N[C@@H]2C=Cc3c([C@H](C)O)cc(nc3[C@H]2O)C(=O)O[C@@H]4C)n1)C(N)=O [Thiostrepton, thiostrepton]
Ribosome [3]
  Ribosome stalling by positive control (first codon): stall ribosomes at the first codon

## O=C(N[C@H](CO)[C@H](O)c1ccc([N+](=O)[O-])cc1)C(Cl)Cl [chloramphenicol]
23S rRNA mutation A2503G
  Resistance conferred by A2503G: confers resistance

## CC1=C\[C@@H](O)CC(=O)Cc2nc(co2)C(=O)N2CCC[C@@H]2C(=O)O[C@H](C(C)C)[C@H](C)/C=C/C(=O)NC\C=C\1 [pristinamycin IIB]
Ribosome [4]
  Ribosome stalling in toe-printing: ribosome stalling at the start codon

## CC1=C\[C@@H](O)CC(=O)Cc2nc(co2)C(=O)N2CCC=C2C(=O)O[C@H](C(C)C)[C@H](C)/C=C/C(=O)NC\C=C\1 [virginiamycin M]
[5]
  Effect on peptidyl transferase reaction: specifically inhibits the peptidyl transferase reaction
